Structures are written as SMILES. Like-named read-outs stand apart in the source and are kept apart here.

This assay concerns Mycosphaerella graminicola; Anamorph: Septoria tritici; Bayer Code SEPTTR. Kind of assay: Leaf blotch of wheat, foliar fungicide treatment, one day protectant (1DP) or three day curative (3DC). In kind it is in vivo, Septoria tritici on wheat plants (variety Yuma). Conditions: Zymoseptoria tritici, percent disease control rating.
Where [1] appears, read: 24 h, one day protectant (1DP), read-out: SETTTR 1DP 25 ppm.
Where [2] appears, read: 24 h, one day protectant (1DP), read-out: SEPTTR 1DP 100 ppm.
[3] abbreviates: 72 h, three day curative (3DC), read-out: SEPTTR 3DC 25 ppm.
[4] abbreviates: 72 h, three day curative (3DC), read-out: SEPTTR 3DC 100 ppm.

For the compound `CN(C)/C=N/c1nc(OS(=O)(=O)c2cccs2)ncc1F` [Compound 89], the pest or weed control at 25 ppm runs as follows: under setting [1], 76 to 100%; under setting [3], 76 to 100%. In addition, the pest or weed control at 100 ppm under setting [2] lay within 76 to 100% and the pest or weed control at 100 ppm under setting [4] fell in the range of 76 to 100%.

Turning to `O=[N+]([O-])c1ccccc1SNc1nc(OCc2cc(Cl)cc(Cl)c2)ncc1F` [Compound 90], the pest or weed control at 25 ppm was in the range of 76 to 100% under setting [1] and 26 to 50% under setting [3]. Besides, the pest or weed control at 100 ppm is 76 to 100% under setting [2] and 51 to 75% under setting [4].

As to `Nc1nc(OCc2cc(F)c(F)c(F)c2)ncc1F` [Compound 93], the pest or weed control at 25 ppm by setting is: under setting [1], 76 to 100%; under setting [3], 76 to 100%. Also, the pest or weed control at 100 ppm fell in the range of 76 to 100% under setting [2] and 76 to 100% under setting [4].

On to `CCC(C)C(=O)Oc1ncc(F)c(/N=C/N(C)C)n1` (stereo not drawn) [Compound 94], for which the pest or weed control at 25 ppm is, setting by setting: under setting [1], 76 to 100%; under setting [3], 76 to 100%. The pest or weed control at 100 ppm was 76 to 100% under setting [2] and 76 to 100% under setting [4].

Consider `CC(C)(C)Oc1ccc(COc2ncc(F)c(N)n2)cc1` [Compound 95], for which the pest or weed control at 25 ppm under setting [1] was in the range of 76 to 100% and the pest or weed control at 25 ppm under setting [3] is 76 to 100%. The pest or weed control at 100 ppm fell in the range of 76 to 100% under setting [2] and 76 to 100% under setting [4].

Turning to `CNC(=O)/C(=N/OC)c1ccccc1COc1ncc(F)c(N)n1` [Compound 96], the pest or weed control at 25 ppm under setting [1] lay in the range of 0 to 25% and the pest or weed control at 25 ppm under setting [3] was 0 to 25%. The pest or weed control at 100 ppm by setting is: under setting [2], 0 to 25%; under setting [4], 0 to 25%.

Turning to `CCC(/C=N/Nc1nc(OCc2cccc(OC)c2)ncc1F)CC` [Compound 97], the pest or weed control at 25 ppm runs as follows: under setting [1], 0 to 25%; under setting [3], 0 to 25%. The pest or weed control at 100 ppm under setting [2] was 51 to 75% and the pest or weed control at 100 ppm under setting [4] lay within 0 to 25%.

Consider `O=C(NCc1ccccc1F)Nc1nc(OCc2cccc(F)c2)ncc1F` [Compound 98], for which the pest or weed control at 25 ppm lay in the range of 0 to 25% under setting [1] and 0 to 25% under setting [3]. Moreover, the pest or weed control at 100 ppm runs as follows: under setting [2], 0 to 25%; under setting [4], 0 to 25%.

With `CCCCCCOc1ncc(F)c(NCO)n1` [Compound 99], the pest or weed control at 25 ppm under setting [1] fell in the range of 0 to 25% and the pest or weed control at 25 ppm under setting [3] fell in the range of 0 to 25%. Besides, the pest or weed control at 100 ppm under setting [2] lay within 76 to 100% and the pest or weed control at 100 ppm under setting [4] is 51 to 75%.

As for `Nc1nc(SCc2ccc(F)cc2)ncc1F` [Compound 100], the pest or weed control at 25 ppm by setting is: under setting [1], 0 to 25%; under setting [3], 0 to 25%. Also, the pest or weed control at 100 ppm reads like this: under setting [2], 0 to 25%; under setting [4], 0 to 25%.

`CC(C)(C)OC(=O)Nc1nc(OCc2ccc(F)cc2)ncc1F` [Compound 101]: the pest or weed control at 25 ppm reads like this: under setting [1], 51 to 75%; under setting [3], 0 to 25%. Further, the pest or weed control at 100 ppm under setting [2] lay in the range of 51 to 75% and the pest or weed control at 100 ppm under setting [4] lay in the range of 0 to 25%.

For `Cc1ccc(COc2ncc(F)c(N(N)c3ccccc3)n2)cc1` [Compound 102], the pest or weed control at 25 ppm is, setting by setting: under setting [1], 0 to 25%; under setting [3], 0 to 25%. Also, the pest or weed control at 100 ppm under setting [2] lay in the range of 0 to 25% and the pest or weed control at 100 ppm under setting [4] was in the range of 26 to 50%.

Take `C[C@H](Oc1ncc(F)c(N)n1)c1ccc(Br)cc1` [Compound 103]: the pest or weed control at 25 ppm is 76 to 100% under setting [1] and 51 to 75% under setting [3]. Moreover, the pest or weed control at 100 ppm under setting [2] lay within 76 to 100% and the pest or weed control at 100 ppm under setting [4] lay within 76 to 100%.

In the case of `Nc1nc(OCc2nc3ccccc3s2)ncc1F` [Compound 104], the pest or weed control at 25 ppm under setting [1] fell in the range of 76 to 100% and the pest or weed control at 25 ppm under setting [3] lay within 76 to 100%. Besides, the pest or weed control at 100 ppm fell in the range of 76 to 100% under setting [2] and 76 to 100% under setting [4].

Consider `Fc1cnc(OCc2ccccc2)nc1N/N=C/C1CC1` [Compound 105], for which the pest or weed control at 25 ppm is, setting by setting: under setting [1], 0 to 25%; under setting [3], 0 to 25%. Also, the pest or weed control at 100 ppm under setting [2] lay in the range of 0 to 25% and the pest or weed control at 100 ppm under setting [4] lay within 0 to 25%.

For `Nc1nc(OCCCC2CCCC2)ncc1F` [Compound 106], the pest or weed control at 25 ppm reads like this: under setting [1], 0 to 25%; under setting [3], 0 to 25%. For the same compound, the pest or weed control at 100 ppm under setting [2] was 0 to 25% and the pest or weed control at 100 ppm under setting [4] lay within 26 to 50%.

Regarding `CC(=O)Nc1nc(OCc2cccc(F)c2)ncc1F` [Compound 107], the pest or weed control at 25 ppm was 76 to 100% under setting [1] and 76 to 100% under setting [3]. Moreover, the pest or weed control at 100 ppm was in the range of 76 to 100% under setting [2] and 76 to 100% under setting [4].

On to `Cn1ccc(COc2ncc(F)c(/N=C/N3CCOCC3)n2)n1` [Compound 108], for which the pest or weed control at 25 ppm under setting [1] lay in the range of 76 to 100% and the pest or weed control at 25 ppm under setting [3] lay in the range of 76 to 100%. For the same compound, the pest or weed control at 100 ppm is 76 to 100% under setting [2] and 76 to 100% under setting [4].

As for `COc1cccc(COc2ncc(F)c(N(N)C3CCCCC3)n2)c1` [Compound 111], the pest or weed control at 25 ppm by setting is: under setting [1], 0 to 25%; under setting [3], 0 to 25%. Further, the pest or weed control at 100 ppm is, setting by setting: under setting [2], 0 to 25%; under setting [4], 0 to 25%.

`CN(C)/C=N/c1nc(OC(=O)OCc2ccccc2)ncc1F` [Compound 112]: the pest or weed control at 25 ppm is, setting by setting: under setting [1], 76 to 100%; under setting [3], 76 to 100%. Further, the pest or weed control at 100 ppm runs as follows: under setting [2], 76 to 100%; under setting [4], 76 to 100%.

For the compound `COc1ccc(Oc2ncc(F)c(NCO)n2)cc1` [Compound 113], the pest or weed control at 25 ppm by setting is: under setting [1], 51 to 75%; under setting [3], 0 to 25%. Besides, the pest or weed control at 100 ppm under setting [2] lay in the range of 76 to 100% and the pest or weed control at 100 ppm under setting [4] lay within 26 to 50%.

On to `CCCNC(=O)Nc1nc(OCc2ccn(C)n2)ncc1F` [Compound 114], for which the pest or weed control at 25 ppm lay in the range of 0 to 25% under setting [1] and 0 to 25% under setting [3]. The pest or weed control at 100 ppm runs as follows: under setting [2], 0 to 25%; under setting [4], 0 to 25%.

For the compound `Fc1cnc(OCc2ccccc2)nc1-n1ccnc1` [Compound 115], the pest or weed control at 25 ppm reads like this: under setting [1], 76 to 100%; under setting [3], 76 to 100%. In addition, the pest or weed control at 100 ppm under setting [2] fell in the range of 76 to 100% and the pest or weed control at 100 ppm under setting [4] is 76 to 100%.

Turning to `O=C(NCc1ccccc1F)Nc1nc(OCc2cccs2)ncc1F` [Compound 116], the pest or weed control at 25 ppm reads like this: under setting [1], 0 to 25%; under setting [3], 0 to 25%. The pest or weed control at 100 ppm is 0 to 25% under setting [2] and 0 to 25% under setting [4].

In the case of `O=[N+]([O-])c1ccccc1SNc1nc(OCc2cccc(F)c2)ncc1F` [Compound 117], the pest or weed control at 25 ppm by setting is: under setting [1], 26 to 50%; under setting [3], 26 to 50%. For the same compound, the pest or weed control at 100 ppm by setting is: under setting [2], 51 to 75%; under setting [4], 26 to 50%.

In the case of `CCCNC(=S)Nc1nc(OCc2cccc(OC)c2)ncc1F` [Compound 119], the pest or weed control at 25 ppm reads like this: under setting [1], 26 to 50%; under setting [3], 51 to 75%. Moreover, the pest or weed control at 100 ppm by setting is: under setting [2], 76 to 100%; under setting [4], 76 to 100%.

`Nc1nc(OCc2cccc3ccccc23)ncc1F` [Compound 120]: the pest or weed control at 25 ppm by setting is: under setting [1], 76 to 100%; under setting [3], 76 to 100%. For the same compound, the pest or weed control at 100 ppm under setting [2] was in the range of 76 to 100% and the pest or weed control at 100 ppm under setting [4] is 76 to 100%.

The values are drawn from patent US9204653B2, “5-fluoro pyrimidine derivatives” (DOW AGROSCIENCES LLC, priority 2008, dated 2015).
